{
  "source": "paper PMC7915026",
  "about": "“Sulfaguanidine Hybrid with Some New Pyridine-2-One Derivatives: Design, Synthesis, and Antimicrobial Activity against Multidrug-Resistant Bacteria as Dual DNA Gyrase and DHFR Inhibitors” (Antibiotics, 2021)",
  "key": {"S. aureus DNA gyrase": {"molecular_target": "S. aureus DNA gyrase (Staphylococcus aureus, UniProt P0A0K8+P20831)", "sequence (P20831 whole entry)": "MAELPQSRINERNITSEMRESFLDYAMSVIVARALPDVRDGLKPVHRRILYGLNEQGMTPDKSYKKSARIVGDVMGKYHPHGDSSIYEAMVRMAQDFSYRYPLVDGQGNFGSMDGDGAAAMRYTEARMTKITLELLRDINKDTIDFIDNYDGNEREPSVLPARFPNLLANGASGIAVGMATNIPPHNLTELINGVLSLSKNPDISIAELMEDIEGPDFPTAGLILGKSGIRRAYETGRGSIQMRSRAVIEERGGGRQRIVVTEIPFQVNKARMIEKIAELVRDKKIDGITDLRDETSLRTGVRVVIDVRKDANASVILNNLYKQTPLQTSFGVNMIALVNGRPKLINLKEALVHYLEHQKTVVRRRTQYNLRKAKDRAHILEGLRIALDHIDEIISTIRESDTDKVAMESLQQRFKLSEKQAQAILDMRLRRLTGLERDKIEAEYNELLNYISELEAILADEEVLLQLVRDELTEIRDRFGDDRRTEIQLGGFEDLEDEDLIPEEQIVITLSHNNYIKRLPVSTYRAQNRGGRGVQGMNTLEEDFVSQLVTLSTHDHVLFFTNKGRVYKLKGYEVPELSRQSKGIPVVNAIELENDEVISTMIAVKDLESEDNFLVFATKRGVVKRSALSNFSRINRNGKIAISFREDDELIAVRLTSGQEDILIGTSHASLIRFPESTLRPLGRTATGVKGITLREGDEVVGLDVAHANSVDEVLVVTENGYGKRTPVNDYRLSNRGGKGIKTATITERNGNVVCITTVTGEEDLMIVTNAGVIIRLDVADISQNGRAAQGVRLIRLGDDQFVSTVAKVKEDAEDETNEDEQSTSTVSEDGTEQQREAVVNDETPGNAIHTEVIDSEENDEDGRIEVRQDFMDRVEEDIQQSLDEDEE", "sequence (P0A0K8 whole entry)": "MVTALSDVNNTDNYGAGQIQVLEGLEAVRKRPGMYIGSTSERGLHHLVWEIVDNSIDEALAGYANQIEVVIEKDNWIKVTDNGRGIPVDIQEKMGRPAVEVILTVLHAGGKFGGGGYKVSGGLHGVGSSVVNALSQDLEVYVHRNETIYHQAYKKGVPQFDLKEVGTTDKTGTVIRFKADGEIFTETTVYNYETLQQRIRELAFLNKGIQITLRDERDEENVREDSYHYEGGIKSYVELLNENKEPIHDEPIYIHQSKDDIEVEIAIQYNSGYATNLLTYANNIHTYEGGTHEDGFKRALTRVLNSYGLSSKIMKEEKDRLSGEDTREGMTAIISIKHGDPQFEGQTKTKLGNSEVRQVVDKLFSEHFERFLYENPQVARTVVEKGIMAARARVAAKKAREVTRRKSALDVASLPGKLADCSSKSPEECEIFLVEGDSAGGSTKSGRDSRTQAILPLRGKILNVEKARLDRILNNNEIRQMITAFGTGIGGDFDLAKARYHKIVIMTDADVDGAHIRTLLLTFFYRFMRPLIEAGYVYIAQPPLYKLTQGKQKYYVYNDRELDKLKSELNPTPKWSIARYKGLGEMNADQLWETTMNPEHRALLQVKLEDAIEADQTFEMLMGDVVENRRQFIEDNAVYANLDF", "experiment": "In vitro DNA gyrase supercoiling enzymatic assay", "format": "biochemical"}, "[1]": {"tested_on": "P. aeruginosa ATCC BAA-2111", "experiment": "Inhibition zone against multidrug-resistant bacteria; also: test concentration or dose not given here", "format": "cell-based", "details": "MDRB P. aeruginosa ATCC BAA-2111", "excerpt": "(§1) Norfloxacin was used as a positive control for the multidrug resistance study.\n(§2) The antimicrobial activity performed at the bacteriology laboratory, Botany and Microbiology Department, Faculty of Science, Al-Azhar University, Cairo, Egypt. The inhibition zone (IZ) of the tested derivatives expressed as the diameter (mm) according to the agar plate diffusion method."}, "E. coli ATCC BAA-196 [2]": {"tested_on": "E. coli ATCC BAA-196", "experiment": "Inhibition zone against multidrug-resistant bacteria", "format": "cell-based", "details": "MDRB E. coli ATCC BAA-196", "excerpt": "as §1, §2"}, "S. aureus ATCC 43300 [3]": {"tested_on": "S. aureus ATCC 43300", "experiment": "Inhibition zone against multidrug-resistant bacteria", "format": "cell-based", "details": "MDRB S. aureus ATCC 43300", "excerpt": "as §1, §2"}, "S. aureus ATCC 33591 [4]": {"tested_on": "S. aureus ATCC 33591", "experiment": "Inhibition zone against multidrug-resistant bacteria", "format": "cell-based", "details": "MDRB S. aureus ATCC 33591", "excerpt": "as §1, §2"}, "E. faecalis ATCC 29212 [5]": {"tested_on": "E. faecalis ATCC 29212", "experiment": "MIC and MBC determination", "format": "cell-based", "details": "Enterococcus faecalis, ATCC29212, E. faecalis"}, "E. coli ATCC 25922 [6]": {"tested_on": "E. coli ATCC 25922", "experiment": "MIC and MBC determination", "format": "cell-based", "details": "Escherichia coli, ATCC25922, E. coli"}, "[7]": {"tested_on": "P. aeruginosa ATCC BAA-2111", "experiment": "MIC and MBC against multidrug-resistant strains", "format": "cell-based", "details": "P. aeruginosa ATCC BAA-2111", "excerpt": "as §1\n(§3) The experiment was repeating for three-times."}, "E. coli ATCC BAA-196 [8]": {"tested_on": "E. coli ATCC BAA-196", "experiment": "MIC and MBC against multidrug-resistant strains", "format": "cell-based", "details": "E. coli ATCC BAA-196", "excerpt": "as §1, §3"}, "S. aureus ATCC 43300 [9]": {"tested_on": "S. aureus ATCC 43300", "experiment": "MIC and MBC against multidrug-resistant strains", "format": "cell-based", "details": "Staphylococcus aureus, ATCC43300, S. aureus ATCC 43300", "excerpt": "as §1, §3"}, "S. aureus ATCC 33591 [10]": {"tested_on": "S. aureus ATCC 33591", "experiment": "MIC and MBC against multidrug-resistant strains", "format": "cell-based", "details": "Staphylococcus aureus, ATCC33591, S. aureus ATCC 33591", "excerpt": "as §1, §3"}, "P. aeruginosa ATCC 27853 [11]": {"tested_on": "P. aeruginosa ATCC 27853", "experiment": "MIC and MBC determination", "format": "cell-based", "details": "Pseudomonas aeruginosa, ATCC27853, P. aeruginosa"}, "E. coli ATCC 25922 [12]": {"tested_on": "E. coli ATCC 25922", "experiment": "Inhibition zone, paper disk/agar diffusion", "format": "cell-based", "details": "E. coli; Na = no activity", "excerpt": "as §2"}, "B. subtilis ATCC 6633 [13]": {"tested_on": "B. subtilis ATCC 6633", "experiment": "Inhibition zone, paper disk/agar diffusion", "format": "cell-based", "details": "B. subtilis; Na = no activity", "excerpt": "as §2"}, "[14]": {"tested_on": "F. oxysporum (RCMB 008002)", "experiment": "Inhibition zone, paper disk/agar diffusion", "format": "cell-based", "details": "Na = no activity", "excerpt": "as §2"}, "S. aureus ATCC 29213 [15]": {"tested_on": "S. aureus ATCC 29213", "experiment": "Inhibition zone, paper disk/agar diffusion", "format": "cell-based", "details": "S. aureus; Na = no activity", "excerpt": "as §2"}, "E. faecalis ATCC 29212 [16]": {"tested_on": "E. faecalis ATCC 29212", "experiment": "Inhibition zone, paper disk/agar diffusion", "format": "cell-based", "details": "E. faecalis; Na = no activity", "excerpt": "as §2"}, "P. aeruginosa ATCC 27853 [17]": {"tested_on": "P. aeruginosa ATCC 27853", "experiment": "Inhibition zone, paper disk/agar diffusion", "format": "cell-based", "details": "P. aeruginosa; Na = no activity", "excerpt": "as §2"}, "[18]": {"tested_on": "F. oxysporum (RCMB 008002)", "experiment": "MIC and MFC determination", "format": "cell-based"}, "[19]": {"tested_on": "Salmonella typhi (S. typhi ATCC 6539)", "experiment": "microbe, parasite or virus in culture", "format": "cell-based", "details": "Salmonella enterica, Salmonella typhi"}, "C. albicans (ATCC 10231)": {"tested_on": "C. albicans (ATCC 10231)", "experiment": "MIC and MFC determination", "format": "cell-based"}, "S. aureus ATCC 29213 [20]": {"tested_on": "S. aureus ATCC 29213", "experiment": "MIC and MBC determination", "format": "cell-based", "details": "Staphylococcus aureus, ATCC29213, S. aureus"}, "B. subtilis ATCC 6633 [21]": {"tested_on": "B. subtilis ATCC 6633", "experiment": "MIC and MBC determination", "format": "cell-based", "details": "Bacillus subtilis, ATCC6633, B. subtilis"}},
  "note": "Like-named read-outs stand apart in the source and are kept apart here.",
  "data": [
    {"molecule": "COc1ccc(/C=C(\\C#N)C(=O)Nc2ccc(S(=O)(=O)NC(=N)N)cc2)cc1", "note": "[Compound 2b, N-(4-(N-Carbamimidoylsulfamoyl)phenyl)-2-cyano-3-(4-methoxyphenyl) acrylamide]", "values": [
      {"measurement": "IC50", "setting": "S. aureus DNA gyrase", "value": "29.1 ± 1.93", "unit": "µM"},
      {"measurement": "Mean Diameter of Inhibition Zone", "setting": "[1]", "value": "19 ± 0.16", "unit": "mm"},
      {"measurement": "Mean Diameter of Inhibition Zone", "setting": "E. coli ATCC BAA-196 [2]", "value": "22 ± 0.85", "unit": "mm"},
      {"measurement": "Mean Diameter of Inhibition Zone", "setting": "S. aureus ATCC 43300 [3]", "value": "20 ± 0.34", "unit": "mm"},
      {"measurement": "Mean Diameter of Inhibition Zone", "setting": "S. aureus ATCC 33591 [4]", "value": "21 ± 0.11", "unit": "mm"},
      {"measurement": "MBC", "setting": "E. faecalis ATCC 29212 [5]; read-out: MBC", "value": "46.3 ± 0.74", "unit": "µM"},
      {"measurement": "MIC", "setting": "E. faecalis ATCC 29212 [5]; read-out: MIC", "value": "23.1 ± 0.61", "unit": "µM"},
      {"measurement": "MBC", "setting": "E. coli ATCC 25922 [6]; read-out: MBC", "value": "219.1 ± 2.14", "unit": "µM"},
      {"measurement": "MIC", "setting": "E. coli ATCC 25922 [6]; read-out: MIC", "value": "156 ± 2.65", "unit": "µM"},
      {"measurement": "MBC", "setting": "[7]", "value": "18.77 ± 0.87", "unit": "µM"},
      {"measurement": "MIC", "setting": "[7]", "value": "9.38 ± 0.47", "unit": "µM"},
      {"measurement": "MBC", "setting": "[7]; Pseudomonas aeruginosa, ATCCBAA2111, read-out: MBC", "value": 18.8, "unit": "µM"},
      {"measurement": "MIC", "setting": "[7]; Pseudomonas aeruginosa, ATCCBAA2111, read-out: MIC", "value": 9.38, "unit": "µM"},
      {"measurement": "MBC", "setting": "E. coli ATCC BAA-196 [8]", "value": "9.38 ± 0.74", "unit": "µM"},
      {"measurement": "MIC", "setting": "E. coli ATCC BAA-196 [8]", "value": "4.69 ± 0.45", "unit": "µM"},
      {"measurement": "MBC", "setting": "E. coli ATCC BAA-196 [8]; Escherichia coli, ATCCBAA196, read-out: MBC", "value": 9.38, "unit": "µM"},
      {"measurement": "MIC", "setting": "E. coli ATCC BAA-196 [8]; Escherichia coli, ATCCBAA196, read-out: MIC", "value": 4.69, "unit": "µM"},
      {"measurement": "MBC", "setting": "S. aureus ATCC 43300 [9]; read-out: MBC", "value": "39.1 ± 0.54", "unit": "µM"},
      {"measurement": "MIC", "setting": "S. aureus ATCC 43300 [9]; read-out: MIC", "value": "19.6 ± 0.52", "unit": "µM"},
      {"measurement": "MBC", "setting": "S. aureus ATCC 33591 [10]; read-out: MBC", "value": "18.8 ± 0.21", "unit": "µM"},
      {"measurement": "MIC", "setting": "S. aureus ATCC 33591 [10]; read-out: MIC", "value": "9.38 ± 0.35", "unit": "µM"},
      {"measurement": "MBC", "setting": "P. aeruginosa ATCC 27853 [11]; read-out: MBC", "value": "133 ± 1.02", "unit": "µM"},
      {"measurement": "MIC", "setting": "P. aeruginosa ATCC 27853 [11]; read-out: MIC", "value": "78.2 ± 1.24", "unit": "µM"},
      {"measurement": "Mean Diameter of the Inhibition Zone", "setting": "E. coli ATCC 25922 [12]", "value": "23 ± 0.2", "unit": "mm"},
      {"measurement": "Mean Diameter of the Inhibition Zone", "setting": "B. subtilis ATCC 6633 [13]", "value": "25 ± 0.87", "unit": "mm"},
      {"measurement": "Mean Diameter of the Inhibition Zone", "setting": "[14]", "value": "17 ± 0.50", "unit": "mm"},
      {"measurement": "Mean Diameter of the Inhibition Zone", "setting": "S. aureus ATCC 29213 [15]", "value": "21 ± 0.3", "unit": "mm"},
      {"measurement": "Mean Diameter of the Inhibition Zone", "setting": "E. faecalis ATCC 29212 [16]", "value": "24 ± 0.35", "unit": "mm"},
      {"measurement": "Mean Diameter of the Inhibition Zone", "setting": "P. aeruginosa ATCC 27853 [17]", "value": "21 ± 0.55", "unit": "mm"},
      {"measurement": "MFC/MIC", "setting": "[18]", "value": "<2"},
      {"measurement": "MFC", "setting": "[18]; Fusarium oxysporum, RCMB008002, read-out: MFC", "value": "222.3 ± 1.65", "unit": "µM"},
      {"measurement": "MIC", "setting": "[18]; Fusarium oxysporum, RCMB008002, read-out: MIC", "value": "139 ± 1.53", "unit": "µM"},
      {"measurement": "MBC", "setting": "[19]; read-out: MBC", "value": "70.4 ± 0.85", "unit": "µM"},
      {"measurement": "MIC", "setting": "[19]; read-out: MIC", "value": "39.1 ± 0.36", "unit": "µM"},
      {"measurement": "MFC/MIC", "setting": "C. albicans (ATCC 10231)", "value": "<2"},
      {"measurement": "MFC", "setting": "C. albicans (ATCC 10231); Candida albicans, ATCC10231, read-out: MFC", "value": "133 ± 1.65", "unit": "µM"},
      {"measurement": "MIC", "setting": "C. albicans (ATCC 10231); Candida albicans, ATCC10231, read-out: MIC", "value": "78.2 ± 0.95", "unit": "µM"},
      {"measurement": "MBC", "setting": "S. aureus ATCC 29213 [20]; read-out: MBC", "value": "78.2 ± 0.87", "unit": "µM"},
      {"measurement": "MIC", "setting": "S. aureus ATCC 29213 [20]; read-out: MIC", "value": "39.1 ± 1.67", "unit": "µM"},
      {"measurement": "MBC", "setting": "B. subtilis ATCC 6633 [21]; read-out: MBC", "value": "35.2 ± 1.25", "unit": "µM"},
      {"measurement": "MIC", "setting": "B. subtilis ATCC 6633 [21]; read-out: MIC", "value": "19.6 ± 0.39", "unit": "µM"}
    ]}
  ]
}
